US11780826B2 (Amgen Inc., priority 2017, dated 2023)

Tested on: Bovine cardiac myofibrils
Assay: In vitro model of dose-dependent myofibril ATPase modulation (AC1.4, pyruvate kinase/lactate dehydrogenase-coupled ATPase assay at pCa25)
Format: biochemical
Details: concentration at which ATPase activity was 1.4-fold higher than the bottom of the dose curve, mean of a minimum of two independent tests
In short: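 Absorbance at 340 nm tracked ATP hydrolysis through pyruvate kinase/lactate dehydrogenase coupling (0.5 mM NADH, 1.5 mM PEP). Myofibrils from detergent-homogenized bovine heart, 1 mM ATP, pH 6.80, EGTA/CaCl2 buffering. Dose-response curves fitted with a four-parameter Hill equation.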

| Structure (SMILES) | AC1.4 [µM] |
| --- | --- |
| O=C(NCc1ccc(C(F)(F)F)cc1)[C@H]1CCCN1C(=O)[C@H]1CCCN(S(=O)(=O)N2CC(Nc3ccc(F)cc3)C2)C1 [Example 469, 1-(((3S)-1-((3-((4-fluorophenyl)amino)-1-azetidinyl)sulfonyl)-3-piperidinyl)carbonyl)-N-(4-(trifluoromethyl)benzyl)-D-prolinamide] | 1.9915 |
| CC(C)[C@@H](NC(=O)[C@H]1CCCN1C(=O)c1cccc(S(C)(=O)=O)c1)c1ccc(C(F)(F)F)cc1F [Example 807, N-((1R)-1-(2-fluoro-4-(trifluoromethyl)phenyl)-2-methylpropyl)-1-(3-(methylsulfonyl)benzoyl)-D-prolinamide] | 4.609 |
| CS(=O)(=O)c1cncc(C(=O)N2C[C@@H](F)C[C@@H]2C(=O)N[C@@H](c2cc(F)c(Cl)cc2F)C2CC2)c1 [Example 488, (4S)-N-((R)-(4-chloro-2,5-difluorophenyl)(cyclopropyl)methyl)-4-fluoro-1-((5-(methylsulfonyl)-3-pyridinyl)carbonyl)-D-prolinamide] | 2.1245 |
| Cc1cc(C(=O)N2[C@@H](C(=O)N[C@@H](c3cc(F)c(Cl)cc3F)C3COC3)C[C@H]3C[C@H]32)cc(C)n1 [Example 603, (1R,3R,5R)-N-((R)-(4-chloro-2,5-difluorophenyl)(3-oxetanyl)methyl)-2-((2,6-dimethyl-4-pyridinyl)carbonyl)-2-azabicyclo[3.1.0]hexane-3-carboxamide] | 3.6775 |
| O=C(N[C@@H](c1ccc(C(F)(F)F)cc1F)C1CC1)[C@H]1CCCN1C(=O)c1cccc(C2(F)CN(S(=O)(=O)C3CC3)C2)c1 [Example 247, N-((R)-cyclopropyl(2-fluoro-4-(trifluoromethyl)phenyl)methyl)-1-(3-(1-(cyclopropylsulfonyl)-3-fluoro-3-azetidinyl)benzoyl)-D-prolinamide] | 0.5868 |
| N#CC1CN(S(=O)(=O)N2CCC[C@H](C(=O)N3CCC[C@@H]3C(=O)NCc3ccc(F)cc3F)C2)C1 [Example 360, 1-(((3S)-1-((3-cyano-1-azetidinyl)sulfonyl)-3-piperidinyl)carbonyl)-N-(2,4-difluorobenzyl)-D-prolinamide] | 1.11 |
| O=C(N[C@@H](c1cc(F)c(Cl)cc1F)C1CC1)[C@H]1C[C@@H](O)CN1C(=O)c1ccnc(C(F)(F)F)c1 [Example 397, (4R)-N-((R)-(4-chloro-2,5-difluorophenyl)(cyclopropyl)methyl)-4-hydroxy-1-((2-(trifluoromethyl)-4-pyridinyl)carbonyl)-D-prolinamide] | 1.361 |
| N#CC1CN(S(=O)(=O)N2CCC[C@H](C(=O)N3[C@@H](C(=O)NCc4ccc(C(F)(F)F)cc4F)C[C@H]4C[C@H]43)C2)C1 [Example 33, (1R,3R,5R)-2-(((3S)-1-((3-cyano-1-azetidinyl)sulfonyl)-3-piperidinyl)carbonyl)-N-(2-fluoro-4-(trifluoromethyl)benzyl)-2-azabicyclo[3.1.0]hexane-3-carboxamide] | 0.03455 |
| CS(=O)(=O)c1cccc(C(=O)N2C(=O)OC[C@@H]2C(=O)N[C@@H](c2ccc(C(F)(F)F)cc2F)C2CC2)c1 [Example 543, (4R)-N-((R)-cyclopropyl(2-fluoro-4-(trifluoromethyl)phenyl)methyl)-3-(3-(methylsulfonyl)benzoyl)-2-oxo-1,3-oxazolidine-4-carboxamide] | 2.813 |
| O=C(N[C@@H](c1cc(F)c(C(F)(F)F)cc1F)C1COC1)[C@H]1C[C@H]2C[C@H]2N1C(=O)c1cc(C(F)(F)F)no1 [Example 826, (1R,3R,5R)-N-((R)-(2,5-difluoro-4-(trifluoromethyl)phenyl)(oxetan-3-yl)methyl)-2-(3-(trifluoromethyl)isoxazole-5-carbonyl)-2-azabicyclo[3.1.0]hexane-3-carboxamide] | 2.628 |
| N#CC1CN(S(=O)(=O)n2cc(C(=O)N3CCC[C@@H]3C(=O)NCc3ccc(C(F)(F)F)cc3)cn2)C1 [Example 123, 1-((1-((3-cyano-1-azetidinyl)sulfonyl)-1H-pyrazol-4-yl)carbonyl)-N-(4-(trifluoromethyl)benzyl)-D-prolinamide] | 0.189 |
| CS(=O)(=O)c1cc(C(=O)N2C[C@@H](F)C[C@@H]2C(=O)N[C@@H](c2cc(F)c(C(F)(F)F)cc2F)C2CC2)ccn1 [Example 416, (4S)-N-((R)-cyclopropyl(2,5-difluoro-4-(trifluoromethyl)phenyl)methyl)-4-fluoro-1-((2-(methylsulfonyl)-4-pyridinyl)carbonyl)-D-prolinamide] | 1.528 |
| N#CC1CC(S(=O)(=O)c2cccc(C(=O)N3CCC[C@@H]3C(=O)NCc3ccc(C(F)(F)F)nc3)c2)C1 (stereo partly drawn) [Example 507, (R)-1-(3-((3-cyanocyclobutyl)sulfonyl)benzoyl)-N-((6-(trifluoromethyl)pyridin-3-yl)methyl)pyrrolidine-2-carboxamide] | 2.38 |
| COc1cc(C(F)(F)F)ccc1[C@H](NC(=O)[C@H]1C[C@H]2C[C@H]2N1C(=O)c1cccc(S(C)(=O)=O)c1)C1CC1 [Example 309, (1R,3R,5R)-N-((R)-cyclopropyl(2-methoxy-4-(trifluoromethyl)phenyl)methyl)-2-(3-(methylsulfonyl)benzoyl)-2-] | 0.822 |
| O=C(N[C@@H](c1ccc(C(F)(F)F)cc1F)C1CC1)[C@H]1CCCN1C(=O)c1cccc(-c2cc[nH]n2)c1 [Example 745, N-((R)-cyclopropyl(2-fluoro-4-(trifluoromethyl)phenyl)methyl)-1-(3-(1H-pyrazol-3-yl)benzoyl)-D-prolinamide] | 7.244 |
| CCc1ccnc(C(=O)N2[C@@H](C(=O)N[C@@H](c3cc(F)c(Cl)cc3F)C3CC3)C[C@H]3C[C@H]32)c1 [Example 640, (1R,3R,5R)-N-((R)-(4-chloro-2,5-difluorophenyl)(cyclopropyl)methyl)-2-((4-ethyl-2-pyridinyl)carbonyl)-2-azabicyclo[3.1.0]hexane-3-carboxamide] | 4.2315 |
| N#CC1CN(S(=O)(=O)N2CCC[C@H](C(=O)N3C[C@H](F)C[C@@H]3C(=O)NCc3ccc(C(F)(F)F)cc3)C2)C1 [Example 216, (4R)-1-(((3S)-1-((3-cyano-1-azetidinyl)sulfonyl)-3-piperidinyl)carbonyl)-4-fluoro-N-(4-(trifluoromethyl)benzyl)-D-prolinamide] | 0.4746 |
| C[C@H](NC(=O)[C@H]1CCCN1C(=O)c1cccc(S(=O)(=O)N2CC(C#N)C2)c1)c1ccc(Cl)cc1 [Example 330, N-((1S)-1-(4-chlorophenyl)ethyl)-1-((3-((3-cyano-1-azetidinyl)sulfonyl)phenyl)carbonyl)-D-prolinamide] | 0.8972 |
| CS(=O)(=O)c1cc(C(=O)N2CCCC[C@@H]2C(=O)N[C@@H](c2cc(F)c(Cl)cc2F)C2CC2)ccn1 [Example 318, (2R)-N-((R)-(4-chloro-2,5-difluorophenyl)(cyclopropyl)methyl)-1-((2-(methylsulfonyl)-4-pyridinyl)carbonyl)-2-piperidinecarboxamide] | 0.8652 |
| N#CC1CN(S(=O)(=O)c2cccc(C(=O)N3CCC[C@@H]3C(=O)N[C@H](CO)c3ccc(Cl)cc3)c2)C1 [Example 57, N-((1S)-1-(4-chlorophenyl)-2-hydroxyethyl)-1-(3-((3-cyano-1-azetidinyl)sulfonyl)benzoyl)-D-prolinamide] | 0.06485 |
